The record followed here is US20040220268A1, “Compound that directly stimulates phospholipase C activity” (priority 2003, published 2004).

Each structure is given as a SMILES string.

For one assay, the system named is Gq-proteins. The experiment in a line: [Ca2+]i in RGS2-GFP inducible HeLa cells. The following applies: histamine 100 μM, m-3M3FBS 25 μM. It is filed as cell-based, human. The method, then:
Isolated neutrophils were preincubated with PTX (1 μg/ml) or vehicle for 90 min at 37° C. and stimulated with m-3M3FBS, FMLF, or ATP at concentrations of 25, 1, and 500 μM, respectively. Changes in the excitation ratios at 340 nm/380 nm were monitored. Data are presented as means ±S. E. M. of two independent experiments (A). cAMP levels were determined by a radio receptor assay. Prepared cells were treated with m-3M3FBS (25 μM) or histamine (100 μM) and then lysed with Tris-EDTA. After removing the supernatant, [ 3H] cAMP and protein were added, and the amount of [^3H] cAMP-protein complex was determined. The amount of unlabeled cAMP (in the sample) was then calculated by measuring the protein-bound radioactivity. Data are presented as means ±S. E. M. of two independent experiments (B). […] RGS2-GFP inducible HeLa cells were cultured for 48 h in the absence or in the presence of tetracycline and loaded with fura-2. Cells were treated with histamine (100 μM) or m-3M3FBS (25 μM), and changes in the 340 nm/380 nm ratios were monitored and converted to [Ca^2+]i values. The results shown are representative of three independent experiments (C).
pRevTRE vector containing the cDNA of rat RGS2-GFP was transfected into Hela Tet-off cells using Lipofectamine. Selection was performed in DMEM supplemented with 2 μg/ml of tetracycline and 500 μg/ml of hygromycin B. Two weeks later, several well-isolated colonies were picked out and analyzed by western blotting to determine the expression level of RGS2 in the absence of tetracycline. For these experiments, HeLa cells were cultured for 48 h in the absence or in the presence of tetracycline.
(§1) Freshly prepared human neutrophils were incubated in serum free RPMI 1640 medium with 3 μM of fura-2/AM at 37° C. for 30 min with continuous stirring. After washing with serum free RPMI 1640 medium, the cells were suspended in serum free RPMI containing 250 μM of sulfinpyrazone to prevent dye leakage. About 2×10^6 cells were suspended in Ca^2+ free Locke's solution (158.4 mM NaCl, 5.6 mM KCl, 1.2 mM MgCl2, 5 mM HEPES pH 7.3, 10 mM glucose, and 0.2 mM EGTA) for each measurement. Changes in the fluorescence ratio were measured at an emission wavelength of 500 nm for dual excitation wavelengths at 340 nm and 380 nm. The calibration of the fluorescence ratio versus [Ca^2+]i was performed as described by Grynkiewicz (Grynkiewicz et al., 1985).

Another assay deals with PLC. The experiment in a line: In vitro PLC activity in the presence or absence of Ca2+. To be noted: data not shown. Format: biochemical. An excerpt: Moreover, the primary structures of the several different isoforms of PLC are known (Rhee, 2001; Noh et al., 1995). PLC β and PLC δ have an NH2-terminal PH domain, an EF-hand, X and Y domains, known to form the catalytic core, and a COOH-terminal C2 domain. In addition, PLC β has a long C-terminal tail beyond the C2 domain (Rhee, 2001; Noh et al., 1995; Rhee and Bae, 1997). PLC γ has additional three SH domains between the X and Y domains, but no long COOH-terminal tail (Rhee, 2001; Noh et al., 1995; Rhee and Bae, 1997). […] For the proper activation of PLC enzyme, calcium has been regarded as an essential requirement (Rhee and Bae, 1997). Calcium is required not only for the functioning of C2 domain that mediates the Ca^2+-dependent binding to lipid vesicles but also for the catalytic activity of the enzyme (Rhee and Bae, 1997). […] An investigation of the effect of m-3M3FBS on the lipase activity of an X and Y domain mixture will be required to confirm the possible action of m-3M3FBS on the two catalytic cores. Since m-3M3FBS is the first compound that directly stimulates PLC activity, the elucidation of the action mechanism of the compound will give useful information on the basic molecular mechanisms of the activation of PLC enzymes.

For a further assay, the system named is PC12 cells. Kind of assay: [Ca2+]i measurement with fura-2. It is filed as cell-based, rat. The following applies: 25 μM. The method, then:
(§2) Neutrophils and HL60, and differentiated HL60, U937, NIH3T3, and PC12 cells were loaded with fura-2 and then stimulated with 25 μM of m-3M3FBS. Changes in the 340 nm/380 nm excitation ratio were monitored, and converted to [Ca^2+]i levels. Data are presented as means ±S. E. M. of three independent experiments.
U937 (human histiocytic lymphoma cells), HL60 (human promyelocytic leukemia cells), NIH3T3 (NIH Swiss mouse embryo fibroblasts), and PC12 (rat adrenal pheochromocytoma cells) were obtained from the American Type Culture Collection (Rockville, Md.) and HeLa (human adenocarcinoma cells) Tet-off cells were purchased from Clontech (Palo Alto, Calif., U.S.A.) and maintained as recommended. The cells were maintained at about 1×10^6 cells/ml under standard incubator conditions (humidified atmosphere, 95% air, 5% CO2, 37° C.). […]
Freshly prepared human neutrophils were incubated in serum free RPMI 1640 medium with 3 μM of fura-2/AM at 37° C. for 30 min with continuous stirring. […] Changes in the fluorescence ratio were measured at an emission wavelength of 500 nm for dual excitation wavelengths at 340 nm and 380 nm. The calibration of the fluorescence ratio versus [Ca^2+]i was performed as described by Grynkiewicz (Grynkiewicz et al., 1985).

A further assay relates to U937 cells. Kind of assay: [Ca2+]i measurement with fura-2. It is filed as cell-based, human. The following applies: 25 μM. The method, then: as §2
(§3) U937 (human histiocytic lymphoma cells), HL60 (human promyelocytic leukemia cells), NIH3T3 (NIH Swiss mouse embryo fibroblasts), and PC12 (rat adrenal pheochromocytoma cells) were obtained from the American Type Culture Collection (Rockville, Md.) and HeLa (human adenocarcinoma cells) Tet-off cells were purchased from Clontech (Palo Alto, Calif., U.S.A.) and maintained as recommended. The cells were maintained at about 1×10^6 cells/ml under standard incubator conditions (humidified atmosphere, 95% air, 5% CO2, 37° C.). HL60 cells were induced to differentiate into the granulocyte phenotype by adding dimethylsulfoxide (DMSO) (final concentration 1.25% v/v) for 5 days, as has been described before (Ithoh et al., 1998).
as §1

A further assay concerns HL60 cells. Kind of assay: [Ca2+]i measurement with fura-2. Format: cell-based, human. To be noted: 25 μM. Here is the method: as §2, §3, §1
Assay [1] deals with differentiated HL60 cells. Kind of assay: [Ca2+]i measurement with fura-2. Format: cell-based, human. To be noted: 25 μM. Here is the method: as §2, §3, §1

Take `Cc1cc(C)c(S(=O)(=O)Nc2cccc(C(F)(F)F)c2)c(C)c1` [m-3M3FBS, 2,4,6-Trimethyl-N-(meta 3-trifluoromethyl-phenyl)-benzenesulfonamide]: the “[Ca2+]i increase” value in the assay with Gq-proteins (HeLa cells in the presence of tetracycline (RGS2 not induced)) is “caused [Ca^2+]i increases”. Besides, in the assay with Gq-proteins (HeLa cells overexpressing RGS2), the “effect of RGS2 induction on the induced calcium response” value was “unaffected”. Further, the “in vitro PLC activity” value in the assay on PLC is listed as “stimulated”. Moreover, the calcium increase result (with PC12 cells; in the assay with U937 cells; in the assay with HL60 cells; in assay [1]) was “induced calcium increase” each time.
